Counter-ions that a name gives are not always drawn. Like-named read-outs stand apart in the source and are kept apart here.
Key:
laser-induced purpura = assay: Prevention of laser-induced purpura, topical pretreatment before laser (Example 2); type: in vivo, human; conditions: topical application 3 hours and 1 hour prior to laser; oxymetazoline HCl 0.05%, naphazoline HCl 0.03%, tetrahydrozoline HCl 0.05%, phenylephrine HCl 1.0%, brimonidine tartrate 0.2%
Excerpt: In order to evaluate the effect of topically applied α1 and α2 adrenergic agonists on the prevention of laser-induced purpura on normal non-actinically damaged skin, seven sites on the trunk of a volunteer were marked and treated with the topical application of a commercially available α1 and/or α2 agonist preparation. Six (of the seven) marked sites were pretreated with the topical application of at least one of the testing preparations. The preparations were applied to the skin and gently rubbed on the skin over and immediately surrounding the laser treatment sites 3 hours prior to and 1 hour prior to the delivery of the laser energy. The applied solution was allowed to air-dry without any dressing. […] After the delivery of the laser energy, each spot received only topical petrolatum jelly 3-4 times/day and no additional application of any testing compound. The sites were followed clinically and photographically 1, 3, 4, 6, 11 and 13 days after the creation of the purpura. The evaluated compounds were:
Site 8: Oxymetazoline hydrochloride (0.05%): A solution of oxymetazoline hydrochloride 0.05% (Afrin® Original 12 Hour Nasal Spray (Schering-Plough Healthcare Products) containing: oxymetazoline hydrochloride 0.05%, benzalkonium chloride solution, edetate disodium, polyethylene glycol, povidone, propylene glycol, purified water, sodium phosphate dibasic, sodium phosphate monobasic.
Site 9: Naphazoline hydrochloride (0.03%): A solution of naphazoline hydrochloride 0.03% (Clear Eyes® Maximum Redness Relief (Prestige Brands Inc.) containing: naphazoline hydrochloride 0.03%, glycerin 0.5%, benzalkonium chloride, boric acid, edetate disodium, purified water, sodium borate).
Site 10: Tetrahydrozoline hydrochloride (0.05%): A solution of tetrahydrozoline hydrochloride 0.05% (Visine® Original (Pfizer Consumer Healthcare) containing: tetrahydrozoline hydrochloride 0.05%, benzalkonium chloride, boric acid, edetate disodium, purified water, sodium borate, sodium chloride).
Site 11: Phenylephrine hydrochloride (1.0%): A solution of phenylephrine hydrochloride 1.0% (Neo-Synephrine® Extra Strength Spray (Bayer HealthCare) containing: phenylephrine hydrochloride 1.0%, anhydrous citric acid, benzalkonium chloride, sodium chloride, sodium citrate, water).
Site 14: No treatment after laser light delivered. (“Control”)

purpura = assay: Resolution of pulsed-dye laser induced purpura, topical application after laser (Example 1); type: in vivo, human; conditions: commercial solutions applied topically every 6-8 hours after pulsed-dye laser (585 nm), trunk of a volunteer, followed 1-13 days; oxymetazoline HCl 0.05%, naphazoline HCl 0.03%, tetrahydrozoline HCl 0.05%, phenylephrine HCl 1.0%, brimonidine tartrate 0.2%
Excerpt: The applied solution was allowed to air-dry without any dressing. […] The evaluated compounds were:
The sites were followed clinically and photographically 1, 3, 4, 6, 11 and 13 days after the creation of the purpura.

solar purpura [1] = assay: Treatment and prevention of solar purpura with topical α1 adrenergic agonist (Example 4); type: in vivo, human
Experimental: Subject 1 is a person with a long-standing history of solar purpura on their forearms. The test area comprised the left dorsal (extensor) forearm from the wrist to the elbow. Pretreatment photos were taken and baseline measurements of the solar purpura on the left extensor forearm from the wrist to the elbow were measured. […] The total area of purpura was 8.94 cm^2. (SEE TABLE 2)
(§1) A solution of oxymetazoline hydrochloride 0.05% (Afrin® Original 12 Hour Nasal Spray (Schering-Plough Healthcare Products) containing: oxymetazoline hydrochloride 0.05%, benzalkonium chloride solution, edetate disodium, polyethylene glycol, povidone, propylene glycol, purified water, sodium phosphate dibasic, sodium phosphate monobasic (0.005%)) was applied by the patient to the left dorsal forearm twice daily (morning and evening). […] The sites were followed clinically and photographically.
Subject 2 is a person with a long history of cosmetically disturbing solar purpura on their forearms who wanted to improve the appearance solar (decrease the purpura). The test area comprised the left dorsal (extensor) forearm from the wrist to the elbow. Pretreatment photos were taken and baseline measurements of the solar purpura on the left extensor forearm from the wrist to the elbow were measured. […] The total area of purpura was 1.72 cm^2. (SEE TABLE 3)
as §1, with “once” for “twice”, “(morning).” for “(morning and evening).”

solar purpura [2] = conditions: for Effect: decrease of purpura area compared to mean baseline / Purpura Area / Effect: increase of purpura area compared to mean baseline: 0.2% solution twice daily; for Effect: decrease of purpura area compared to mean baseline / Purpura Area: right dorsal forearm; for Purpura Area: mean baseline 3.67 cm^2; for Effect: increase of purpura area compared to mean baseline: day 24, increase in purpura noted after gardening
Excerpt: The use of a topically applied α2 adrenergic agonist for the treatment and prevention of solar purpura (“actinic purpura”, “Bateman's purpura”): In order to evaluate the effect of topically applied α1 and α2 adrenergic agonists on the prevention and treatment of solar purpura, a volunteer with a diagnosis of solar purpura of the forearms treated with a topically applied α2 adrenergic agonist containing solution. The test area comprised the right extensor forearm from the wrist to the elbow. Photos were taken and baseline scores for the solar purpura on their right dorsal forearm from the wrist to the elbow were measured 6 times over a 91 day period before initiating treatment. Two measurements were taken to approximate the area of each purpuric patch.
The solution was applied with a cotton ball to the skin of the entire right extensor forearm from the wrist to the elbow. The sites were followed clinically and photographically.

[3] = Subject 1, 0.05% solution twice daily
[4] = Subject 2, 0.05% solution once daily

c1ccc2c(CC3=NCCN3)cccc2c1 [naphazoline hydrochloride]
how pronounced the effect of pretreatment was (smaller purpuric macule/patch, shortened resolution) (laser-induced purpura): more pronounced | resolution of the purpura compared with non-treated control site (purpura): most pronounced

Cc1cc(C(C)(C)C)c(O)c(C)c1CC1=NCCN1 [oxymetazoline hydrochloride]
Purpura Area (solar purpura [1]; Subject 1, day 17, 0.05% solution twice daily, left extensor forearm, baseline 8.94 cm^2): 9.95 cm^2 | Effect: increase of purpura area compared to baseline (solar purpura [1]; Subject 1, day 17, 0.05% solution twice daily, hydrochloride): ↑ 11% from Baseline | Effect: increase of purpura area compared to baseline (solar purpura [1]; Subject 1, day 17, 0.05% solution twice daily, listed as oxymetazoline, hydrochloride): 11% | Purpura Area (solar purpura [1]; Subject 1, day 29, 0.05% solution twice daily, baseline 8.94 cm^2): 5.73 cm^2 | Effect: decrease of purpura area compared to baseline (solar purpura [1]; Subject 1, day 29, 0.05% solution twice daily, hydrochloride): ↓ 36% from Baseline | Effect: decrease of purpura area compared to baseline (solar purpura [1]; Subject 1, day 29, 0.05% solution twice daily, listed as oxymetazoline, hydrochloride): 36% | Purpura Area (solar purpura [1]; Subject 1, day 44, 0.05% solution twice daily, baseline 8.94 cm^2): 5.6 cm^2 | Effect: decrease of purpura area compared to baseline (solar purpura [1]; Subject 1, day 44, 0.05% solution twice daily, hydrochloride): ↓ 37% from Baseline | Effect: decrease of purpura area compared to baseline (solar purpura [1]; Subject 1, day 44, 0.05% solution twice daily, listed as oxymetazoline, hydrochloride): 37% | Purpura Area (solar purpura [1]; Subject 1, day 81, 0.05% solution twice daily, baseline 8.94 cm^2): 1.44 cm^2 | Effect: decrease of purpura area compared to baseline (solar purpura [1]; Subject 1, day 81, 0.05% solution twice daily, hydrochloride): ↓ 84% from Baseline | Effect: decrease of purpura area compared to baseline (solar purpura [1]; Subject 1, day 81, 0.05% solution twice daily, listed as oxymetazoline, hydrochloride): 84% | Purpura Area (solar purpura [1]; Subject 1, day 91 (medication discontinued day 91), 0.05% solution twice daily, baseline 8.94 cm^2): 0.42 cm^2 | Effect: decrease of purpura area compared to baseline (solar purpura [1]; Subject 1, day 91, 0.05% solution twice daily, hydrochloride): ↓ 95% from Baseline | Effect: decrease of purpura area compared to baseline (solar purpura [1]; Subject 1, day 91, 0.05% solution twice daily, listed as oxymetazoline, hydrochloride): 95% | Purpura Area (solar purpura [1]; Subject 1, day 98, 7 days off medication, day 91 value 0.42 cm^2): 1.96 cm^2 | Effect: increase of purpura area (table: from Baseline; text: from day 91 measurement) (solar purpura [1]; Subject 1, day 98, 7 days off medication, hydrochloride): ↑ 366% from Baseline | Effect: increase of purpura area (table: from Baseline; text: from day 91 measurement) (solar purpura [1]; Subject 1, day 98, 7 days off medication, listed as oxymetazoline, hydrochloride): 366% | Purpura Area (solar purpura [1]; Subject 1, day 112, 14 days off medication, day 91 value 0.42 cm^2): 0.46 cm^2 | Effect: increase of purpura area (table: from Baseline; text: from day 91 measurement) (solar purpura [1]; Subject 1, day 112, 14 days off medication, hydrochloride): ↑ 10% from Baseline | Effect: increase of purpura area (table: from Baseline; text: from day 91 measurement) (solar purpura [1]; Subject 1, day 112, 14 days off medication, listed as oxymetazoline, hydrochloride): 10% | Purpura Area (solar purpura [1]; Subject 1, day 122, 24 days off medication, day 91 value 0.42 cm^2): 2.22 cm^2 | Effect: increase of purpura area (table: from Baseline; text: from day 91 measurement) (solar purpura [1]; Subject 1, day 122, 24 days off medication, hydrochloride): ↑ 428% from Baseline | Effect: increase of purpura area (table: from Baseline; text: from day 91 measurement) (solar purpura [1]; Subject 1, day 122, 24 days off medication, listed as oxymetazoline, hydrochloride): 428% | patient's impression: new purpuric macules/patches while using the medication (solar purpura [1]; [3]): fewer new purpuric macules/patches | patient's impression: resolution of purpura that occurred (solar purpura [1]; [3]): resolve more quickly | side effects, local or systemic, during the treatment (solar purpura [1]; Subject 1, 0.05% solution twice daily, 91 days): no side effects, either local or systemic | Purpura Area (solar purpura [1]; Subject 2, day 7, 0.05% solution once daily, left extensor forearm, baseline 1.72 cm^2, hydrochloride): 0.00 cm^2 | Purpura Area (solar purpura [1]; Subject 2, day 7, 0.05% solution once daily, left extensor forearm, baseline 1.72 cm^2, listed as oxymetazoline, hydrochloride): 0 cm^2 | Effect: decrease of purpura area compared to baseline (solar purpura [1]; Subject 2, day 7, 0.05% solution once daily, hydrochloride): ↓ 100% from Baseline | Effect: decrease of purpura area compared to baseline (solar purpura [1]; Subject 2, day 7, 0.05% solution once daily, listed as oxymetazoline, hydrochloride): 100% | Purpura Area (solar purpura [1]; Subject 2, day 31, 0.05% solution once daily, baseline 1.72 cm^2, hydrochloride): 0.00 cm^2 | Purpura Area (solar purpura [1]; Subject 2, day 31, 0.05% solution once daily, baseline 1.72 cm^2, listed as oxymetazoline, hydrochloride): 0 cm^2 | Effect: decrease of purpura area compared to baseline (solar purpura [1]; Subject 2, day 31, 0.05% solution once daily, hydrochloride): ↓ 100% from Baseline | Effect: decrease of purpura area compared to baseline (solar purpura [1]; Subject 2, day 31, 0.05% solution once daily, listed as oxymetazoline, hydrochloride): 100% | Purpura Area (solar purpura [1]; Subject 2, day 36, 0.05% solution once daily, baseline 1.72 cm^2): 0.36 cm^2 | patient's impression: new purpuric patches while using the medication (solar purpura [1]; [4]): fewer new purpuric patches | patient's impression: resolution of purpura that occurred (solar purpura [1]; [4]): resolve more quickly | side effects, local or systemic, during the treatment (solar purpura [1]; [4]): no side effects, either local or systemic | overall outcome of the trials on solar purpura (solar purpura [1]; topically applied once or twice daily, two subjects): dramatically reduces the size and appearance of purpuric macules/patches and may eliminate them | how pronounced the effect of pretreatment was (smaller purpuric macule/patch, shortened resolution) (laser-induced purpura): more pronounced | resolution of the purpura compared with non-treated control site (purpura): most pronounced

CNC[C@H](O)c1cccc(O)c1 [phenylephrine hydrochloride]
how pronounced the effect of pretreatment was (smaller purpuric macule/patch, shortened resolution) (laser-induced purpura): more pronounced | resolution of the purpura compared with non-treated control site (purpura): most pronounced

c1ccc2c(c1)CCCC2C1=NCCN1 (centres unmarked) [tetrahydrozoline hydrochloride]
how pronounced the effect of pretreatment was (smaller purpuric macule/patch, shortened resolution) (laser-induced purpura): more pronounced

brimonidine tartrate
how pronounced the effect of pretreatment was (smaller purpuric macule/patch, shortened resolution) (laser-induced purpura): less pronounced | overall outcome of the trial on solar purpura (solar purpura [2]; 0.2% topically applied twice daily): reduces the size and appearance of purpuric macules/patches | Effect: decrease of purpura area compared to mean baseline (solar purpura [2]; day 7): ↓ 60% from Baseline | Purpura Area (solar purpura [2]; day 7, person): 1.48 cm^2 | Effect: decrease of purpura area compared to mean baseline (solar purpura [2]; day 7, listed as brimonidine): 60% | Effect: decrease of purpura area compared to mean baseline (solar purpura [2]; day 14): ↓ 90% from Baseline | Effect: decrease of purpura area compared to mean baseline (solar purpura [2]; day 14, listed as brimonidine): 90% | Purpura Area (solar purpura [2]; day 14): 0.35 cm^2 | Purpura Area (solar purpura [2]; day 24, after gardening): 5.72 cm^2 | Effect: increase of purpura area compared to mean baseline (solar purpura [2]): ↑ 34% from Baseline | Effect: increase of purpura area compared to mean baseline (solar purpura [2]; listed as brimonidine): 34% | Purpura Area (solar purpura [2]; day 36): 2.52 cm^2
